Data from patent publication US20060257400A1, “COMBINATION THERAPY” (Bristol-Myers Squibb Company, priority 2005, published 2006).

Test system: Human L2987 lung carcinomas
Experiment: Antitumor testing, s.c. L2987 xenografts in nude mice
Format: in vivo
Conditions: athymic nude mice, s.c. L2987 tumors established at 100-200 mm^3; Compound I 100 mg/Kg daily; Erbitux 1 mg per mouse every three days, 5 doses; combination given essentially simultaneously
Description: Animals. […] They were fed food and water ad libitum. All studies involving these animals were conducted in accordance with NIH (Bethesda, Md.) and Bristol Myers-Squibb animal care and use guidelines.
Tumors. […] All efficacy testing involved tumors implanted s.c. in nude mice.

Cc1cc2c(F)c(Oc3ncnn4cc(OC[C@@H](C)OC(=O)[C@H](C)N)c(C)c34)ccc2[nH]1 [Compound I]
delay of tumor growth to target tumor size of 500 mm^3 compared to vehicle treated control group: ten
